# Laboratory results: US20250170252A1, “QUINONE PROTECTED FORMS AND CONJUGATES” (CAMBRIDGE ENTERPRISE LIMITED, priority 2022, published 2025)
# Columns and labels:
# HeLa = assay: Toxicity with/without β-glucuronidase, HeLa; type: cell-based; conditions: Homo sapiens, read-out: IC50 β-lapachone, 1
# Experimental: (§1) Assays assessing cytotoxicity of β-lapachone and derivatives were performed by CellTiter-Blue assay (Promega) according to the manufacturer's instructions. Briefly, adherent cancer-cell lines were plated at 20,000 cells/well in 96 well plates or suspension cell lines were plated at a concentration of 2×10^5 cells/mL in 24 well plates. Compound stocks in media were made by dilution of DMSO stocks containing the compound of interest to obtain a final in-plate DMSO concentration of only 0.1%. Incubation was performed for 48 h. Following incubation, media was replaced with media containing CellTiter-Blue (Promega) in 1:10 dilution and the plates were incubated for 1.5-4 h. The fluorescence of the plates was recorded (excitation 555 nm, emission 585 nm, MiniMax i3x Reader, Molecular Devices).
# Cell viability was calculated by division of the fluorescence intensity of treated wells by that of the calculated average fluorescence intensity of replicate negative control wells containing cells with 0.1% DMSO only. Values and reported error bars represent the mean and standard error of the mean of three triplicate repeats for each concentration tested. IC50 values were calculated using GraphPad Prism 8 software.
# The potential of compound 37a, glucuronide-PHB-BL, as a prodrug was investigated. As discussed above, at physiological pH the compound has a relatively slow-release rate. Toxicity of Gluc-PHB-BL 37a was tested against a range of cell lines with and without added β-glucuronidase. Addition of the enzyme mimics conditions of the solid tumour environment.
# [1] = In vitro redox-cycling ability, phenol red/horseradish peroxidase assay; type: biochemical; conditions: HRP/phenol-red reporter assay, absorbance at 610 nm; up to 25 μM
# Experimental: In vitro redox cycling capability of compounds was assessed by phenol red/horseradish peroxidase (HRP) assay by adaption of a previously described protocol (Assay Drug Dev. Technol., 2008, 6, 505-518). Briefly, stocks were prepared as follows: (1) DTT to a concentration of 2.4 μM in PBS pH 7.4 buffer; (2) compound stocks in PBS pH 7.4 buffer to 3× the desired concentration by 1000× dilution of DMSO stocks; (3) a stock of phenol-red-HRP detection reagent containing 300 μg/mL phenol red and 180 μg/mL HRP enzyme in PBS pH 7.4 buffer; (4) a stock of 1 M NaOH in water; (5) a stock of 100 μM H2O2 in PBS prepared by addition of a 30% solution of H2O2 in water into 1000 μL of PBS. Into each well of a 96 well clear flat-bottomed plate was then added 40 μL of compound stock in PBS followed by 40 μL of DTT stock, followed immediately by 40 μL of phenol-red-HRP reagent. A positive control with 100 μM H2O2 added in place of compound was included. The plate was incubated in the dark at room temperature for 15 min. Following this 20 μL of 1 M NaOH was added to each well to terminate the reaction. Absorbance was immediately measured at 610 nm (MiniMax i3x Imager, Molecular Devices). Absorbance of treated wells was normalised to control wells treated with PBS only (zero redox cycling). All readings were performed in triplicate and error bars display standard error of the mean.
# [2] = test system: range of cancer cell lines, including leukaemia, breast, colon, and cervical cancer; assay: Toxicity to a range of cancer cell lines (panel); type: cell-based; conditions: panel of cells
# Experimental: as §1, with “MiniMax i3x” left out, “Devices). Cell viability was calculated by division of the fluorescence intensity of treated wells by that of the calculated average fluorescence intensity of replicate negative control wells containing cells with 0.1% DMSO only. Values and reported error bars represent the mean and standard error of the mean of three triplicate repeats for each concentration tested.” for “Devices).”
# [3] = test system: HCT-116 (colon cancer cell line); assay: Viability assay (CellTiter-Blue), HCT-116; type: cell-based; conditions: Homo sapiens
# Experimental: as §1, with “MiniMax i3x” left out, “Devices). Cell viability was calculated by division of the fluorescence intensity of treated wells by that of the calculated average fluorescence intensity of replicate negative control wells containing cells with 0.1% DMSO only. Values and reported error bars represent the mean and standard error of the mean of three triplicate repeats for each concentration tested.” for “Devices).”
# MOLM-13 = assay: Viability assay with small molecule prodrugs, Trypan Blue exclusion, MOLM-13; type: cell-based; conditions: 5 μM, 24 h timepoint
# Experimental: For assays assessing cytotoxicity of β-lapachone versus small molecule dipeptide prodrugs, suspension cells were plated into 24 well plates at a density of 2.5×10^5 cells/mL in 240 μL. Serial dilutions of compound were made up in PBS. 60 μL of each stock of either PBS, or compound in PBS was added to the cells to achieve the desired final concentration. After the specified incubation time, toxicity was assessed by counting of live cells using the Trypan Blue exclusion method with a Countess II Automated Cell Counter (ThermoFisher Scientific) according to the manufacturer's instructions. Cell viability was determined by division of average live cell number of treated wells by average live cell number for control wells treated with PBS only. Values recorded are the mean of three repeat wells, with error bars representing the standard error of the mean for each concentration tested. IC50 values were calculated using GraphPad Prism software.
# [4] = test system: Panc-1 pancreatic cancer cell line; assay: CellTiter Glo viability assay, Panc-1; type: cell-based; conditions: Homo sapiens; Panc-1, β-lapachone alone, 48 hours; read-out: IC50
# Experimental: For CellTiter Glo viability assays, 10,000 cells per well were plated on Day 1 and were allowed to adhere to the plate surface for 24 hours. Optimized concentration ranges of prodrugs were determined and made via serial dilution. […] Cells were incubated with compound for 48 hours and viability was assessed on Day 4 using the CellTiter Glo Viability assay which measures metabolically active cells by quantifying the amount of ATP present.
# Panc-1 cells were obtained from Tony Kouzarides' lab in the Gurdon Institute at the University of Cambridge and put into culture at passage 10 containing DMEM media (Gibco) supplemented with 1% Pen-Strep antibiotic (Gibco), 1% L-glutamine, and 10% fetal bovine serum (FBS, sterile-filtered). Aspc-1 cells were bought commercially from the American Type Culture Collection (ATCC) and put into culture containing RPMI 1640 media (Gibco) supplemented with 1% Pen-Strep antibiotic (Gibco), 1% L-glutamine, and 20% fetal bovine serum (FBS, sterile-filtered). All cell lines were started at passage 10 and passaged every 3 days by centrifuging at 1000 rpm for 4 minutes.
# [5] = test system: MCF-7 (breast cancer cell line); assay: Viability assay (CellTiter-Blue), MCF-7; type: cell-based; conditions: Homo sapiens, MCF7
smiles,measurement,setting,value
"CC1(C)CCC2=C(O1)c1ccccc1C(=O)C2=O [Compound 1, β-lapachone, reference compound]",IC50,HeLa,4.26 µM
same,redox activity (in vitro redox-cycling capability),[1],saturates the assay above 10 μM concentration
same,IC50,[2],1.1 to 4.2 µM
same,IC50,[3],1.1 µM
same,toxicity to MOLM-13,MOLM-13,complete cell death
same,IC50,[4],2.04 µM
same,IC50,[5],1.9 µM
